The values that follow come from US20240376094A2, “SELECTIVE BCL-XL PROTAC COMPOUNDS AND METHODS OF USE” (Les Laboratoires Servier, priority 2021, published 2024).

What all share (type): cell-based
One assay has as its target T1, HiBiT-tagged BCL-xL (Homo sapiens, UniProt Q07817).
T1 construct: expressed in transfected cells; host or cells: NCI-H1650 (ATCC No. CRL-5883), engineered HiBiT cell line
In words: NCI-H1650 BCL-xL protein levels, Nano-Glo HiBiT Lytic Detection. The settings on record: NCI-H1650 expressing HiBiT-tagged BCL-xL, overnight incubation, read-out: Bcl-xl HIBIT NCIH1650 DC50. The method, boiled down: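 NCI-H1650 cells expressing HiBiT-tagged BCL-xL (5000/well) were treated overnight at 37° C with 10 concentrations, final 0.508 nM-10 μM, in triplicate. Remaining BCL-xL measured by Nano-Glo HiBiT lytic luminescence, normalized to untreated cells; 50% values by four-parameter logistic fit.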

Assay [1] deals with EBC-1 lung cancer cell line. In words: EBC-1 cell proliferation, CellTiter-Glo assay. The settings on record: Homo sapiens, 120 h; Ebc-1 cell viability, CTG assay, 5 days of treatment; read-out: CTG 5 day Ebc1 GI50. The method, boiled down:
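EBC-1 cells seeded at 1000 per well overnight, then exposed to 10-point dilutions (0.508 nM–10 μM final) for 5 days at 37 °C, in triplicate. ATP luminescence by CellTiter-Glo, normalised to untreated wells; GI50 from four-parameter logistic fit, runs valid only with at least one doubling.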
Background: Cellular ATP, detected with luciferase, serves as a proxy for viable cell number.

In the next assay the test system is MOLT-4 cells. The assay is described as follows: MOLT-4 cell viability, MTT assay. Conditions: Homo sapiens, MOLT-4, 48 h. The method, boiled down:
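MOLT-4 cells in RPMI 1640 with 10% FBS were exposed to compounds for 48 h at 9 concentrations (3.16-fold dilutions, triplicates). After 4 h with MTT and overnight SDS/HCl solubilisation, absorbance was read at 540 nm. IC50 came from four-parameter fits versus control, as the mean of ≥2 independent experiments.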
(In general: Tetrazolium dyes change colour on reduction, which living cells bring about.)

In a further assay the target is T2, Bcl-xL (Homo sapiens, UniProt Q07817).
T2 construct: Measured levels of Bcl-xL protein of HCT116 cells treated with the tested compounds; host or cells: HCT116
T2 sequence (Q07817 whole entry): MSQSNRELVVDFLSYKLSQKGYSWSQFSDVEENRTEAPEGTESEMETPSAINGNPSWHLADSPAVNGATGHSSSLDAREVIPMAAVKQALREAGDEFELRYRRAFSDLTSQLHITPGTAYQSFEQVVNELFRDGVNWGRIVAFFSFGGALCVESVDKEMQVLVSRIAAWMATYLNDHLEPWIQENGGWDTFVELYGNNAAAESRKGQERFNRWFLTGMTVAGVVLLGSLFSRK
In words: HCT116 Bcl-xL degradation, capillary-based immunoassay (WES). Conditions: for DC50: HCT116, 24 h, 9-point serial dilution; for remaining activity at 0.01 µM / remaining activity at 0.1 µM: HCT-116, 24 h, % of untreated cells; for remaining activity at 0.01 µM: HCT116, 10 nM; for remaining activity at 0.1 µM: HCT116, 100 nM. The method, boiled down:
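HCT116 cells treated 24 h with compound at 10/100 nM and/or 9-point dilution (quadruplicates), then lysed. Bcl-xL measured by capillary WES immunoassay, normalized to cofilin and expressed as % of untreated cells. DC50 from four-parameter curve fit.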

Molecules are shown by their SMILES.

T1 sequence (Q07817 whole entry): as above

As a reminder, the GI50 is the concentration giving 50% growth inhibition. The term IC50 denotes the concentration needed to halve the response being measured. A high value points to weaker potency in that assay. The term remaining activity denotes the activity still measured, relative to the control. Read a high remaining activity as a small loss of activity. As for `Cc1ncsc1-c1ccc([C@H](C)NC(=O)C2C[C@@H](O)CN2C(=O)C(NC(=O)CCCCCC(=O)N2CCN(CC#Cc3ccc(OCCCc4sc(N5CCCc6c5nnc(Nc5nc7ccccc7s5)c6C)nc4C(=O)O)c(F)c3)CC2)C(C)(C)C)cc1` (stereo in doubt) [Example 17, 2-[3-(1,3-benzothiazol-2-ylamino)-4-methyl-6,7-dihydro-5H-pyrido[2,3-c]pyridazin-8-yl]-5-[3-[2-fluoro-4-[3-[4-[7-[[(1S)-1-[(2S,4R)-4-hydroxy-2-[[(1S)-1-[4-(4-methylthiazol-5-yl)phenyl]ethyl]carbamoyl]pyrrolidine-1-carbonyl]-2,2-dimethyl-propyl]amino]-7-oxo-heptanoyl]piperazin-1-yl]prop-1-ynyl]phenoxy]propyl] thiazole-4-carboxylic acid], on HiBiT-tagged BCL-xL, the DC50 was > 1670 nM. In addition, in assay [1], the GI50 was 31 nM. Besides, half-maximal inhibition with MOLT-4 cells (IC50) was put at 3.84 nM. For the same molecule, on Bcl-xL, the DC50 amounted to 0.488 nM, the remaining activity at 0.01 µM amounted to 32% and the remaining activity at 0.1 µM is 9%.
Regarding `Cc1ncsc1-c1ccc([C@H](C)NC(=O)[C@@H]2C[C@@H](O)CN2C(=O)[C@@H](NC(=O)CCCCCCCCCCCN(C)CCOC23CC4(C)CC(C)(CC(Cn5ncc(-c6ccc(N7CCCc8c7nnc(Nc7nc9ccccc9s7)c8C)nc6C(=O)O)c5C)(C4)C2)C3)C(C)(C)C)cc1` [Example 2, 6-[3-(1,3-benzothiazol-2-ylamino)-4-methyl-6,7-dihydro-5H-pyrido[2,3-c]pyridazin-8-yl]-3-[1-[[3-[2-[[12-[[(1S)-1-[(2S,4R)-4-hydroxy-2-[[(1S)-1-[4-(4-methylthiazol-5-yl)phenyl]ethyl]carbamoyl]pyrrolidine-1-carbonyl]-2,2-dimethyl-propyl]amino]-12-oxo-dodecyl]-methyl-amino]ethoxy]-5,7-dimethyl-1-adamantyl]methyl]-5-methyl-pyrazol-4-yl]pyridine-2-carboxylic acid], on HiBiT-tagged BCL-xL, the DC50 came out at 1 nM. In assay [1], the GI50 was 13 nM. The same molecule registered an IC50 with MOLT-4 cells of 1.06 nM. At Bcl-xL, the DC50 came to 0.286 nM, the remaining activity at 0.01 µM amounted to 26% and the remaining activity at 0.1 µM turned out to be 11%.
On to `Cc1ncsc1-c1ccc([C@H](C)NC(=O)[C@@H]2C[C@@H](O)CN2C(=O)[C@@H](NC(=O)CCCCCCCCCCCCCN(C)CCOC23CC4(C)CC(C)(CC(Cn5ncc(-c6ccc(N7CCCc8c7nnc(Nc7nc9ccccc9s7)c8C)nc6C(=O)O)c5C)(C4)C2)C3)C(C)(C)C)cc1` [Example 4, 6-[3-(1,3-benzothiazol-2-ylamino)-4-methyl-6,7-dihydro-5H-pyrido[2,3-c]pyridazin-8-yl]-3-[1-[[3-[2-[[14-[[(1S)-1-[(2S,4R)-4-hydroxy-2-[[(1S)-1-[4-(4-methylthiazol-5-yl)phenyl]ethyl]carbamoyl]pyrrolidine-1-carbonyl]-2,2-dimethyl-propyl]amino]-14-oxo-tetradecyl]-methyl-amino]ethoxy]-5,7-dimethyl-1-adamantyl]methyl]-5-methyl-pyrazol-4-yl]pyridine-2-carboxylic acid], for which, on HiBiT-tagged BCL-xL, the DC50 is 0.4 nM. The GI50 in assay [1] was 1 nM. This molecule also showed an IC50 in the assay on MOLT-4 cells of 0.85 nM. On Bcl-xL, this molecule registered a DC50 of 0.279 nM, a remaining activity at 0.01 µM of 33% and a remaining activity at 0.1 µM of 14%.
Turning to `Cc1c(Nc2nc3ccccc3s2)nnc2c1CCCN2c1ccc(-c2cnn(CC34CC5(C)CC(C)(C3)CC(OCCN(C)CCCCCCCCCCOc3ccc6c(c3)C(=O)N(C3CCC(=O)NC3=O)C6=O)(C5)C4)c2C)c(C(=O)O)n1` (centres unmarked) [Example 60, 6-[3-(1,3-benzothiazol-2-ylamino)-4-methyl-6,7-dihydro-5H-pyrido[2,3-c]pyridazin-8-yl]-3-[1-[[3-[2-[10-[2-(2,6-dioxo-3-piperidyl)-1,3-dioxo-isoindolin-5-yl]oxydecyl-methyl-amino]ethoxy]-5,7-dimethyl-1-adamantyl]methyl]-5-methyl-pyrazol-4-yl]pyridine-2-carboxylic acid], the DC50 on HiBiT-tagged BCL-xL is > 1670 nM. Moreover, in assay [1], the GI50 came to 1 nM. In the assay on MOLT-4 cells, this molecule displayed an IC50 of 0.717 nM. On Bcl-xL, this molecule displayed a DC50 of 0.11 nM, a remaining activity at 0.01 µM of 19% and a remaining activity at 0.1 µM of 23%.
As to `Cc1ncsc1-c1ccc([C@H](C)NC(=O)[C@@H]2C[C@@H](O)CN2C(=O)[C@@H](NC(=O)CCCCCCCCCCCCN(C)CCOC23CC4(C)CC(C)(CC(Cn5ncc(-c6ccc(N7CCCc8c7nnc(Nc7nc9ccccc9s7)c8C)nc6C(=O)O)c5C)(C4)C2)C3)C(C)(C)C)cc1` [Example 136, 6-[3-(1,3-benzothiazol-2-ylamino)-4-methyl-6,7-dihydro-5H-pyrido[2,3-c]pyridazin-8-yl]-3-[1-[[3-[2-[[13-[[(1S)-1-[(2S,4R)-4-hydroxy-2-[[(1S)-1-[4-(4-methylthiazol-5-yl)phenyl]ethyl]carbamoyl]pyrrolidine-1-carbonyl]-2,2-dimethyl-propyl]amino]-13-oxo-tridecyl]-methyl-amino]ethoxy]-5,7-dimethyl-1-adamantyl]methyl]-5-methyl-pyrazol-4-yl]pyridine-2-carboxylic acid], the DC50 came to 1 nM at HiBiT-tagged BCL-xL and 2.71 nM at Bcl-xL. Moreover, the GI50 in assay [1] came out at 1 nM. Besides, the IC50 in the assay with MOLT-4 cells was found to be 1.45 nM.
In the case of `Cc1ncsc1-c1ccc([C@H](C)NC(=O)[C@@H]2CC(O)CN2C(=O)[C@@H](NC(=O)CCCCCCCCCCCCCCN(C)CCOC23CC4(C)CC(C)(CC(Cn5ncc(-c6ccc(N7CCCc8c7nnc(Nc7nc9ccccc9s7)c8C)nc6C(=O)O)c5C)(C4)C2)C3)C(C)(C)C)cc1` (stereo in doubt) [Example 7, 6-[3-(1,3-benzothiazol-2-ylamino)-4-methyl-6,7-dihydro-5H-pyrido[2,3-c]pyridazin-8-yl]-3-[1-[[3-[2-[[15-[[(1S)-1-[(2S,4R)-4-hydroxy-2-[[(1S)-1-[4-(4-methylthiazol-5-yl)phenyl]ethyl]carbamoyl]pyrrolidine-1-carbonyl]-2,2-dimethyl-propyl]amino]-15-oxo-pentadecyl]-methyl-amino]ethoxy]-5,7-dimethyl-1-adamantyl]methyl]-5-methyl-pyrazol-4-yl]pyridine-2-carboxylic acid], the DC50 at HiBiT-tagged BCL-xL is 1 nM. Moreover, the GI50 in assay [1] stood at 2 nM. This molecule also displayed an IC50 in the assay with MOLT-4 cells of 0.493 nM. On Bcl-xL, this molecule gave a DC50 of 0.742 nM, a remaining activity at 0.01 µM of 52% and a remaining activity at 0.1 µM of 34%.
As to `Cc1ncsc1-c1ccc(CNC(=O)[C@@H]2C[C@@H](O)CN2C(=O)[C@@H](NC(=O)C2(F)CC2)C(C)(C)C)c(OCCCCCCCCCCCCN(C)CCOC23CC4(C)CC(C)(CC(Cn5ncc(-c6ccc(N7CCCc8c7nnc(Nc7nc9ccccc9s7)c8C)nc6C(=O)O)c5C)(C4)C2)C3)c1` [Example 139, 6-[3-(1,3-benzothiazol-2-ylamino)-4-methyl-6,7-dihydro-5H-pyrido[2,3-c]pyridazin-8-yl]-3-[1-[[3-[2-[12-[2-[[[(2S,4R)-1-[(2S)-2-[(1-fluorocyclopropanecarbonyl)amino]-3,3-dimethyl-butanoyl]-4-hydroxy-pyrrolidine-2-carbonyl]amino]methyl]-5-(4-methylthiazol-5-yl)phenoxy]dodecyl-methyl-amino]ethoxy]-5,7-dimethyl-1-adamantyl]methyl]-5-methyl-pyrazol-4-yl]pyridine-2-carboxylic acid], the DC50 at HiBiT-tagged BCL-xL was 3 nM; at Bcl-xL it was 0.397 nM. Besides, in assay [1], the concentration for 50% growth inhibition (GI50) amounted to 7 nM. Moreover, the IC50 in the assay on MOLT-4 cells was found to be 3.52 nM.
